Reference: ChEMBL document CHEMBL1143804, “Synthesis and antibacterial evaluation of 1beta-methyl-2-[5-(1-methoxyimino-2-substituted sulfonamide ethyl)pyrrolidin-3-ylthio]carbapenems and their related compounds” (2007)
Converted amounts (≈) assume the structure as drawn.

Columns and labels:
Escherichia coli [1] = assay: Antibacterial activity against Escherichia coli TEM; format: functional
Streptococcus pyogenes [2] = assay: Antibacterial activity against Streptococcus pyogenes 308A; format: functional
Streptococcus pyogenes [3] = assay: Antibacterial activity against Streptococcus pyogenes 77A; format: functional
Staphylococcus aureus [4] = assay: Antibacterial activity against Staphylococcus aureus SG511; format: functional
Staphylococcus aureus [5] = assay: Antibacterial activity against Staphylococcus aureus 285; format: functional
Escherichia coli [6] = assay: Antibacterial activity against Escherichia coli DC2; format: functional
Pseudomonas aeruginosa = assay: Antibacterial activity against Pseudomonas aeruginosa 9027; format: functional
Salmonella typhimurium = assay: Antibacterial activity against Salmonella Typhimurium; format: functional, Salmonella enterica subsp. enterica serovar Typhimurium; settings: Salmonella enterica
Klebsiella aerogenes = assay: Antibacterial activity against Klebsiella aerogenes 1522E; format: functional
Enterobacter cloacae = assay: Antibacterial activity against Enterobactor cloacae 1321E; format: functional

SMILES	MIC (Escherichia coli [1])	MIC (Streptococcus pyogenes [2])	MIC (Streptococcus pyogenes [3])	MIC (Staphylococcus aureus [4])	MIC (Staphylococcus aureus [5])	MIC (Escherichia coli [6])	MIC (Pseudomonas aeruginosa)	MIC (Salmonella typhimurium)	MIC (Klebsiella aerogenes)	MIC (Enterobacter cloacae)
CO/N=C(\CNS(C)(=O)=O)[C@@H]1C[C@H](SC2=C(C(=O)O)N3C(=O)[C@H]([C@@H](C)O)[C@H]3[C@H]2C)CN1	0.195 µg/mL (≈ 0.409 µM)	0.098 µg/mL (≈ 0.206 µM)	0.098 µg/mL (≈ 0.206 µM)	0.195 µg/mL (≈ 0.409 µM)	0.391 µg/mL (≈ 0.82 µM)	0.195 µg/mL (≈ 0.409 µM)	12.5 µg/mL (≈ 26.2 µM)	0.781 µg/mL (≈ 1.64 µM)	0.781 µg/mL (≈ 1.64 µM)	0.391 µg/mL (≈ 0.82 µM)
CO/N=C(\CNC(N)=O)[C@@H]1C[C@H](SC2=C(C(=O)O)N3C(=O)[C@H]([C@@H](C)O)[C@H]3[C@H]2C)CN1	0.049 µg/mL (≈ 0.111 µM)	< 0.01 µg/mL	0.013 µg/mL (≈ 0.0294 µM)	0.098 µg/mL (≈ 0.222 µM)	0.195 µg/mL (≈ 0.442 µM)	0.049 µg/mL (≈ 0.111 µM)	1.56 µg/mL (≈ 3.53 µM)	0.098 µg/mL (≈ 0.222 µM)	0.195 µg/mL (≈ 0.442 µM)	0.049 µg/mL (≈ 0.111 µM)
CCNS(=O)(=O)NC/C(=N\OC)[C@@H]1C[C@H](SC2=C(C(=O)O)N3C(=O)[C@H]([C@@H](C)O)[C@H]3[C@H]2C)CN1	0.049 µg/mL (≈ 0.0969 µM)	< 0.01 µg/mL	< 0.01 µg/mL	0.049 µg/mL (≈ 0.0969 µM)	0.098 µg/mL (≈ 0.194 µM)	0.013 µg/mL (≈ 0.0257 µM)	3.12 µg/mL (≈ 6.17 µM)	0.025 µg/mL (≈ 0.0494 µM)	0.049 µg/mL (≈ 0.0969 µM)	0.025 µg/mL (≈ 0.0494 µM)
CO/N=C(\CN)[C@@H]1C[C@H](SC2=C(C(=O)O)N3C(=O)[C@H]([C@@H](C)O)[C@H]3[C@H]2C)CN1	0.195 µg/mL (≈ 0.489 µM)	< 0.01 µg/mL	< 0.01 µg/mL	0.098 µg/mL (≈ 0.246 µM)	0.195 µg/mL (≈ 0.489 µM)	0.049 µg/mL (≈ 0.123 µM)	3.12 µg/mL (≈ 7.83 µM)	0.098 µg/mL (≈ 0.246 µM)	0.195 µg/mL (≈ 0.489 µM)	0.098 µg/mL (≈ 0.246 µM)
CO/N=C(\CNS(=O)(=O)N(C)C)[C@@H]1C[C@H](SC2=C(C(=O)O)N3C(=O)[C@H]([C@@H](C)O)[C@H]3[C@H]2C)CN1	0.098 µg/mL (≈ 0.194 µM)	0.025 µg/mL (≈ 0.0494 µM)	0.013 µg/mL (≈ 0.0257 µM)	0.195 µg/mL (≈ 0.386 µM)	0.195 µg/mL (≈ 0.386 µM)	0.098 µg/mL (≈ 0.194 µM)	6.25 µg/mL (≈ 12.4 µM)	0.195 µg/mL (≈ 0.386 µM)	0.391 µg/mL (≈ 0.773 µM)	0.195 µg/mL (≈ 0.386 µM)
